In PubChem BioAssay AID1845213 (Molecular Pharmacology Branch, DTP, NCI, 2023):
“And” between values parts separate entries of the source, which are not always exact repeats. Equal entries are not always repeated. The source made the active and inactive calls. Rule for the calls: active = viability on the fitted dose curve at most 10% of control; inactive = the rest.

System: NCI-H841 complex tumor spheroid viability
Assay: Anticancer human tumor NCI-H841 cell line growth inhibition;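 for IC50: spheroids exposed to compounds for 7 days before readout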;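 for viability, T/C: spheroids exposed to compounds for 7 days before readout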
Details: for viability, T/C: stronger effect = lower value
Description: Multicellular complex tumor spheroid response to DNA repair inhibitors in combination with DNA-damaging drugs
This study explores the anticancer activities of DNA-damaging drugs and inhibitors of DNA damage repair, both as single agents and in combinations. Complex tumor spheroids comprised of malignant cells, endothelial cells and mesenchymal stem cells served as an in vitro model for human solid tumors. This model system incorporates physiologically relevant features and patient-derived or established malignant cell lines with clinically relevant genetic alterations from many tumor types. Twenty-six patient-derived or established malignant cell lines were evaluated representing sarcoma, melanoma, small cell lung cancer (SCLC), non-small cell lung cancer (NSCLC), as well as bladder, ovarian and pancreatic cancers. The concentration ranges selected for each drug and investigational agent were based upon clinically achievable concentrations if the clinical Cmax of the agent was known.
Compounds. The drugs and compounds olaparib (NSC753686), talazoparib (NSC767125), berzosertib (NSC777718), elimusertib (NSC800525), nedisertib (NSC802822), VX-984 (NSC792969), AZD-1390 (NSC803789), temozolomide (NSC362856), topotecan (NSC609699), trabectedin (NSC813783), staurosporine (NSC755774), and gemcitabine (NSC613327) were obtained from the National Cancer Institute (NCI) Developmental Therapeutics Program Chemical Repository. The FDA-approved anticancer drug set is available from the Developmental Therapeutics Program at https://dtp.cancer.gov/organization/dscb/obtaining/available_plates.htm. […] The stock solutions were prepared in dimethyl sulfoxide (DMSO, Sigma-Aldrich, St. Louis, MO, cat. D2650) at 400-fold the tested concentration and stored at -70 degrees C. Prior to their use, the stock solutions were diluted in fresh medium and the final DMSO concentration in the assay was 0.25% (v/v). All drugs and investigational agents were tested over a range starting from a high concentration at or near the clinical Cmax and decreasing in half-log increments. If the clinical Cmax for an agent had not been determined, the highest concentration tested was 10 microM.
Cell Lines. The patient-derived cancer cell (PDC) lines: 156681-154-R-J1-PDC, 283228-195-R-J1-PDC, 287954-098-R-J1-PDC, 292921-168-R-J2-PDC, 349418-098-R-PDC, 425362-245-T-J1-PDC, 556581-035-R-J1-PDC, and BL0293-F563-PDC were received from the NCI Patient-Derived Models Repository (PDMR, https://pdmr.cancer.gov). The established cell lines HS-SY-2 (RRID:CVCL_8719), MPNST, and SYO-1 (RRID:CVCL_7146) were obtained from the Sloan Kettering Institute. The alveolar soft parts sarcoma cell line ASPS-1 (RRID:CVCL_S738) was established at the NCI and grown from internal seed stocks. The following established cell lines were purchased from the American Type Culture Collection (ATCC, Manassas, VA): G-401 (ATCC, cat. CRL-1441, RRID:CVCL_0270), SW982 (ATCC, cat. HTB-93, RRID:CVCL_1734), VA-ES-BJ (ATCC, cat. CRL-2138, RRID:CVCL_1785), NCI-H719 (ATCC, cat. CRL-5837, RRID:CVCL_1582), NCI-H196 (ATCC, cat. CRL-5823, RRID:CVCL_1509), NCI-H841 (ATCC, cat. CRL-5845, RRID:CVCL_1595), NCI-H1618 (ATCC, cat. CRL-5879, RRID:CVCL_1480), NCI-H1876 (ATCC, cat. CRL-5902, RRID:CVCL_1503), DMS 114 (ATCC, cat. CRL-2066; RRID:CVCL_1174), NCI-H211 (ATCC, cat. CRL-5824; RRID:CVCL_1529), and SW 1271 (ATCC, cat. CRL-2177, RRID:CVCL_1716). The small cell lung cancer cell line COR-L88 was purchased from Sigma-Aldrich (cat. 92031917-1VL, RRID:CVCL_1141). The non-small cell lung cancer cell lines NCI-H226 (RRID:CVCL_1544) and NCI-H322M (RRID:CVCL_1557) were established at the NCI and grown from internal seed stocks. Pooled donor human umbilical vein endothelial cells (HUVEC, Lonza, cat. CC-2519) and human mesenchymal stem cells (hMSC, Lonza, cat. PT-2501) were purchased from Lonza (Walkersville, MD).
Cell Culture. All cells were maintained in an incubator at 37 degrees C and 5% CO2 with 95% humidity. […]

O=C(c1cc(Cc2n[nH]c(=O)c3ccccc23)ccc1F)N1CCN(C(=O)C2CC2)CC1 + Cn1nnc2c(C(N)=O)ncn2c1=O
IC50 (curve of first compound, second compound 1 µM): 5820 nM
IC50 (curve of first compound, second compound 3.16 µM): 4960 nM
IC50 (curve of first compound, second compound 10 µM): 131 nM
IC50 (curve of first compound, second compound 31.6 µM): 490 nM
IC50 (curve of first compound, second compound 100 µM): < 94.9 nM
viability, T/C (second compound 1 µM, first compound 0.0949 µM): 96.6%
viability, T/C (second compound 1 µM, first compound 0.3 µM): 99.7%
viability, T/C (second compound 1 µM, first compound 0.949 µM): 87.6%
outcome (second compound 1 µM, first compound 3 µM): inactive
viability, T/C (second compound 1 µM, first compound 9.49 µM): 36.1%
viability, T/C (second compound 1 µM, first compound 30 µM): 7.71%
viability, T/C (second compound 3.16 µM, first compound 0.0949 µM): 104%
viability, T/C (second compound 3.16 µM, first compound 0.3 µM): 99.6%
viability, T/C (second compound 3.16 µM, first compound 0.949 µM): 95.3%
viability, T/C (second compound 3.16 µM, first compound 3 µM): 77.5%
viability, T/C (second compound 3.16 µM, first compound 9.49 µM): 14.7%
viability, T/C (second compound 3.16 µM, first compound 30 µM): 7.81%
outcome (second compound 10 µM, first compound 0.0949 µM): inactive
outcome (second compound 10 µM, first compound 0.3 µM): inactive
viability, T/C (second compound 10 µM, first compound 0.949 µM): 45.5%
viability, T/C (second compound 10 µM, first compound 3 µM): 9.01%
viability, T/C (second compound 10 µM, first compound 9.49 µM): 6.29%
viability, T/C (second compound 10 µM, first compound 30 µM): 3.58%
viability, T/C (second compound 31.6 µM, first compound 0.0949 µM): 90.2%
viability, T/C (second compound 31.6 µM, first compound 0.3 µM): 83.1%
viability, T/C (second compound 31.6 µM, first compound 0.949 µM): 4.8%
viability, T/C (second compound 31.6 µM, first compound 3 µM): 9.51%
viability, T/C (second compound 31.6 µM, first compound 9.49 µM): 3.15%
viability, T/C (second compound 31.6 µM, first compound 30 µM): 4.15%
viability, T/C (second compound 100 µM, first compound 0.0949 µM): 17.8%
viability, T/C (second compound 100 µM, first compound 0.3 µM): 15%
viability, T/C (second compound 100 µM, first compound 0.949 µM): 4.23%
viability, T/C (second compound 100 µM, first compound 3 µM): 5.1%
viability, T/C (second compound 100 µM, first compound 9.49 µM): 3.82%
viability, T/C (second compound 100 µM, first compound 30 µM): 5.19%

O=C(c1cc(Cc2n[nH]c(=O)c3ccccc23)ccc1F)N1CCN(C(=O)C2CC2)CC1
viability, T/C (compound 0.0949 µM): 101% and 95.3% and 103%
outcome (compound 0.3 µM): inactive
viability, T/C (compound 0.3 µM): 93.6% and 103%
viability, T/C (compound 0.949 µM): 94.8% and 89.4% and 99.4%
viability, T/C (compound 3 µM): 43.4% and 81.5% and 88.2%
viability, T/C (compound 30 µM): 8.7% and 7.95% and 1.92%
IC50 (curve of compound): 2580 nM and 6160 nM and 5100 nM

COc1cc(C)[nH]c(=O)c1CN1CCc2c(Cl)cc(C(OC)C3COC3)c(Cl)c2C1=O (configuration not stated) + COc1cc2c(cc1O)CCNC21CSC2c3c(OC(C)=O)c(C)c4c(c3C(COC1=O)N1C(O)C3Cc5cc(C)c(OC)c(O)c5C(C21)N3C)OCO4
IC50 (curve of first compound, second compound 30 pM): 9900 nM
IC50 (curve of first compound, second compound 94.9 pM): 2520 nM
IC50 (curve of first compound, second compound 0.0003 µM): < 31.6 nM
IC50 (curve of first compound, second compound 0.000949 µM): < 31.6 nM
IC50 (curve of first compound, second compound 0.003 µM): < 31.6 nM
viability, T/C (second compound 30 pM, first compound 0.0316 µM): 85.9%
viability, T/C (second compound 30 pM, first compound 0.1 µM): 76.3%
viability, T/C (second compound 30 pM, first compound 0.316 µM): 71.5%
viability, T/C (second compound 30 pM, first compound 1 µM): 67.3%
viability, T/C (second compound 30 pM, first compound 3.16 µM): 58.8%
viability, T/C (second compound 30 pM, first compound 10 µM): 48.7%
viability, T/C (second compound 94.9 pM, first compound 0.0316 µM): 84.6%
viability, T/C (second compound 94.9 pM, first compound 0.1 µM): 67.9%
viability, T/C (second compound 94.9 pM, first compound 0.316 µM): 70.9%
viability, T/C (second compound 94.9 pM, first compound 1 µM): 56.1%
viability, T/C (second compound 94.9 pM, first compound 3.16 µM): 48.8%
viability, T/C (second compound 94.9 pM, first compound 10 µM): 39.1%
viability, T/C (second compound 0.0003 µM, first compound 0.0316 µM): 32.9%
viability, T/C (second compound 0.0003 µM, first compound 0.1 µM): 27.3%
viability, T/C (second compound 0.0003 µM, first compound 0.316 µM): 14.5%
viability, T/C (second compound 0.0003 µM, first compound 1 µM): 13.7%
viability, T/C (second compound 0.0003 µM, first compound 3.16 µM): 10.3%
viability, T/C (second compound 0.0003 µM, first compound 10 µM): 5.83%
viability, T/C (second compound 0.000949 µM, first compound 0.0316 µM): 3.08%
viability, T/C (second compound 0.000949 µM, first compound 0.1 µM): 2.58%
viability, T/C (second compound 0.000949 µM, first compound 0.316 µM): 2.24%
viability, T/C (second compound 0.000949 µM, first compound 1 µM): 1.23%
viability, T/C (second compound 0.000949 µM, first compound 3.16 µM): 1.24%
viability, T/C (second compound 0.000949 µM, first compound 10 µM): 0.9%
viability, T/C (second compound 0.003 µM, first compound 0.0316 µM): 0.09%
viability, T/C (second compound 0.003 µM, first compound 0.1 µM): 0.09%
viability, T/C (second compound 0.003 µM, first compound 0.316 µM): 0.07%
viability, T/C (second compound 0.003 µM, first compound 1 µM): 0.1%
viability, T/C (second compound 0.003 µM, first compound 3.16 µM): 0.09%
viability, T/C (second compound 0.003 µM, first compound 10 µM): 0.17%

COc1cc2c(cc1O)CCNC21CSC2c3c(OC(C)=O)c(C)c4c(c3C(COC1=O)N1C(O)C3Cc5cc(C)c(OC)c(O)c5C(C21)N3C)OCO4 (configuration not stated)
viability, T/C (compound 30 pM): 102% [middle of 10 runs]
viability, T/C (compound 94.9 pM): 99.5% [middle of 10 runs]
viability, T/C (compound 0.000949 µM): 3.1% [middle of 10 runs]
viability, T/C (compound 0.003 µM): 0.11% [middle of 4 runs]
IC50 (compound alone, run of 12/16/2019): 0.258 nM [middle of 10 runs]
